Series [1] deals with Mycobacterium smegmatis ATCC 607. As to the kind of experiment: Minimum inhibiting concentration, M. smegmatis ATCC 607. In kind it is cell-based. To be noted: for MIC: Mycolicibacterium smegmatis.
The subject of series [2] is Mycobacterium lufu. As to the kind of experiment: Minimum inhibiting concentration, M. lufu L 209. Conditions: for MIC: Mycobacterium lufu. Type of series: cell-based.
For series [3], the system named is lymphatic leukaemia P388. To be noted: C. Pellerano et al, Il Farmaco 1985; cited from earlier work.
Series [4] deals with Mycobacterium avium Patient Strain (Birk). As to the kind of experiment: Minimum inhibiting concentration, M. avium Patient Strain (Birk). In kind it is cell-based. To be noted: for MIC: Mycobacterium avium, read-out: Minimum inhibiting concentration.
Series [5] has as its system Mycobacterium marinum SN 1254. Kind of series: Minimum inhibiting concentration, M. marinum SN1254. Type of series: cell-based.
The test system of series [6] is Mycobacterium tuberculosis H 37 RV. As to the kind of experiment: Minimum inhibiting concentration, M. tuberculosis H37RV. In kind it is cell-based. To be noted: M. tub. H37RV; for MIC: Mycobacterium tuberculosis. On the procedure:
The minimum inhibiting concentration of the commercially available and inventive substances given in Table 2 was determined according to the known standard process ("Methods for sensitivity testing of bacterial infectious germs", DIN 58940, part 5).
The determination was carried out on the following bacterial cultures:
2. Mycobacterium tuberculosis H 37 RV, FIB 2-85 JS
For culturing the bacterial cultures use was made of nutrient substrates according to Gottsacker and Lowenstein Jensen and culture media according to Lockemann or Dubos-Davis (cf. "Detection processes for mycobacteria from test material, III, culture medium formulations for culturing tuberculosis bacteria", 1978, Publisher: Deutsches Zentralkomitee zur Bekampfung der Tuberculose, Poppenhusenstrasse 14c, 2000 Hamburg 60).
In each case 5×10^-3 to 5×10^-5 mg, based on the wet weight, of the mycobacterial strains were incubated in 2 ml of culture fluid (Lockemann +0.5 wt/vol. % bovine serum albumen fraction 5) at 31° C. with a graded concentration of the particular inhibitor (dilution series). The culture tubes were read off after 8 to 15 days, as a function of the bacterial strain.
The MIC is the inhibitor concentration in μMol/l at which no propagation of the sewn cells is observed.

For series [7], the system named is human mammary tumour cell line MDA-MB231. As to the kind of experiment: Inhibition of thymidine incorporation into DNA. In kind it is cell-based. To be noted: MDA-MB-231, read-out: 50% Inhibition of thymidine incorporation. On the procedure: (§1) The semimaximum inhibition of cellnumber increase and thymidine incorporation into DNA was determined on the […], human mammary tumour cell line MDA-MB231 (cf. H. D. Soule et al, J. Nat. Cancer Inst., 51, p.1409, 1973) according to the method described by H. Seidenberger, G. Kranzfelder, S. Wappes, H. Schonenberger, W. Beck and M. Girth, Arch. Pharm. 314, 955, 1981 and M. Lippman, M. E. Monaco and G. Bolan, Cancer Res. 37, 1901, 1977.
Background: Uptake of a labelled nucleoside into DNA is a usual measure of proliferation.

For series [8] the test system is unchanged. As to the kind of experiment: Inhibition of cellnumber increase. Conditions: MDA-MB-231, read-out: 50% Inhibition of cellnumber increase, I50. Type of series: cell-based. On the procedure:
as §1

Series [9] relates to Indochina W-2 (parasitic malaria strain). As to the kind of experiment: Growth of malaria strain Indochina W-2. Conditions: for IC50: read-out: I50; for IC90: read-out: I90. Type of series: cell-based. An excerpt: (§2) Determination of the semimaximum inhibiting concentration (I50) of typical representatives of the inventive compounds for the growth of parasitic malaria strains:
(§3) The determination took place according to the standard process (cf. WHO determination process).
(§4) The process according to Example 35 was repeated with the difference that the semimaximum inhibiting concentration of combinations of the inventive compound PH 22 with (2), (3) inhibitors of dihydrofolic acid reductase, (4) inhibitors of folate synthase and dihydrofolic acid reductase and (5), (6) inhibitors of DNA-synthesis were determined.

Series [10] deals with Sierra Leone D-6 (parasitic malaria strain). As to the kind of experiment: Growth of malaria strain Sierra Leone D-6. In kind it is cell-based. Conditions: for IC50: read-out: I50; for IC90: read-out: I90.
Text: as §2, §3, §4

Series [11] has as its system Mycobacterium avium SN 304. As to the kind of experiment: Minimum inhibiting concentration, M. avium SN 304. In kind it is cell-based.
Series [12] concerns M. leprae. Kind of series: In vitro propagation of M. leprae, thymidine incorporation. In kind it is cell-based. Conditions: Mycobacterium leprae, read-out: % Reduction Thymidine incorporation; for inhibition of growth at 10000 µg/mL: 10 mg/ml.
Protocol: The inhibiting action was determined as a reaction of the thymidine absorption and the ATP content in M. Leprae suspensions, in the manner described by A. M. Dhople, Med. Sci. Res., 15, p.
Series [13] has as its system M. leprae. As to the kind of experiment: Propagation of M. leprae in mouse paws. Type of series: in vivo. To be noted: two months in feed; DDS 0.0001%, Rifampicin 0.001%, K-130 0.01%, Brodimoprim 0.01%, PH 22-26 0.05%. As to the method:
The therapeutic action was determined as a reduction of the number of acid-resistant bacteria in the mouse paw according to C. C. Shepard, J. Experim. Met., 112, p. 445, 1960.
It is possible to detect the synergistic effect of the combinations, even under in vivo conditions.

The conditions of series [14]: Mouse, cited from earlier work.
The mark [15] stands for this setting: ATCC607, M. smegm. ATCC 607, read-out: Minimum inhibiting concentration.
[16] abbreviates: M. marin. SN1254, read-out: Minimum inhibiting concentration.
Setting [17] is: SN304, M. avium SN 304, read-out: Minimum inhibiting concentration.

Converted amounts (≈) assume the structure as drawn. Like-named read-outs stand apart in the source and are kept apart here.

These results are taken from patent US4997835A, “Substituted 2-acylpyridine-α-(N)-hetarlyhydrazones and medicaments containing the same” (priority 1987, dated 1991).

On to `CC(=NNc1ccccn1)c1ccccn1` [PH 22-2, 2-acetylpyridine-2'-pyridylhydrazone], for which the MIC was found to be 24 µM (≈ 5.09 µg/mL) in series [1] (setting [15]); 33 µM (≈ 7 µg/mL) in series [2]; 132 µM in series [4] (M. avium Patient str.); 28 µM (≈ 5.94 µg/mL) in series [5] (setting [16]); 48 µM (≈ 10.2 µg/mL) in series [6]. Besides, in series [3], the “in vivo treatment of lymphatic leukaemia P388” value is on record as “ineffective”.
`c1ccc(C(=NNc2ccc3ccccc3n2)c2ccccn2)cc1` [PH 22-15, 2-benzoylpyridine-2'-quinolylhydrazone]: the MIC turned out to be 3.1 µM (≈ 1.01 µg/mL) in series [1] (setting [15]); 1.2 µM (≈ 0.389 µg/mL) in series [2]; 18.5 µM in series [4] (M. avium Patient str.); 4.6 µM (≈ 1.49 µg/mL) in series [5] (setting [16]); 0.97 µM (≈ 0.315 µg/mL) in series [6]. Also, the IC50 in series [7] is 570 nM; in [8] it was 1530 nM.
`CCC(=NNc1nncc2ccccc12)c1ccccn1` [PH 22-25, ethyl-2-pyridylketone-1'-phthalazinylhydrazine]: the MIC was 10.8 µM (≈ 3 µg/mL) in [1] (setting [15]), 2.7 µM (≈ 0.749 µg/mL) in series [2], 101 µM (≈ 28 µg/mL) in [5] (setting [16]) and 36 µM (≈ 9.98 µg/mL) in [6]. Besides, the IC50 was 400 nM in [9], 104 nM in series [7], 300 nM in series [10] and 194 nM in [8]. Also, the figures for the IC90 in series [9] and in series [10] were 700 nM and 450 nM, respectively.
Take `C(=NNc1nncc2ccccc12)c1ccc(OCc2ccccc2)cn1` [PH 22-6, 5-benzyloxypyridine-2-aldehyde-1'-phthalazinylhydrazone]: the MIC in [1] (setting [15]) amounted to 40 µM (≈ 14.2 µg/mL); in series [2], 5.6 µM (≈ 1.99 µg/mL); in [4] (M. avium Patient str.), 7 µM; in series [5] (setting [16]) it was 7 µM (≈ 2.49 µg/mL); in [6], 8.5 µM (≈ 3.02 µg/mL).
Regarding `[H]/N=C(/N)N[C@H]1[C@H](O)[C@@H](O)[C@H](O[C@@H]2O[C@@H](C)[C@](O)(C=O)[C@H]2O[C@@H]2O[C@@H](CO)[C@H](O)[C@@H](O)[C@@H]2NC)[C@@H](N/C(N)=N\[H])[C@@H]1O` [Streptomycin], the MIC in [11] (setting [17]) amounted to 55 µM (≈ 32 µg/mL).
`COc1cc(Cc2cnc(N)nc2N)cc(OC)c1OCCCNc1ccc(S(=O)(=O)c2ccc(N)cc2)cc1` [K-130, 2,4-diamino-5-{4-[3-(4'-aminophenyl-4-sulphonylphenylamino)-propoxy]-3,5-dimethoxybenzyl}-pyrimidine]: the inhibition of growth at 10000 µg/mL in series [12] amounted to 0%. The inhibition of growth at 20000 µg/mL in series [12] (20 mg/ml) amounted to 65%. Moreover, in series [13], the “% Inhibition of propagation of M. leprae in mouse paws” value (“% Inhibition” for short) is 56%.
`Cc1ccnc(C=NNc2ccccn2)c1` [PH 22-7, 4-methyl-pyridine-2-aldehyde-2'-pyridylhydrazone]: the MIC in series [1] (ATCC607, read-out: Minimum inhibiting concentration) was 113 µM (≈ 24 µg/mL); in series [2], 57 µM (≈ 12.1 µg/mL); in [5] (SN1254, read-out: Minimum inhibiting concentration), 113 µM (≈ 24 µg/mL); in series [6], 113 µM (≈ 24 µg/mL). The IC50 in series [7] amounted to 159 nM; in [8], 278 nM.
With `COc1cc(Cc2cnc(N)nc2N)cc(OC)c1Br` [Brodimoprim, brodimoprim, reference compound], the MIC is 80 µM (≈ 27.1 µg/mL) in [2]; over 100 µg/mL in [4] (M. avium Patient str., values marked *); 18 µM (≈ 6.11 µg/mL) in series [5] (setting [16]); 94 µM (≈ 31.9 µg/mL) in series [6]. Besides, the “% Inhibition” value in series [13] is 3%.
As to `NC[C@H]1O[C@H](O[C@H]2[C@H](O)[C@@H](O[C@H]3O[C@H](CO)[C@@H](O)[C@H](N)[C@H]3O)[C@H](N)C[C@@H]2N)[C@H](O)[C@@H](O)[C@@H]1O` [Kanamycin, reference compound], the MIC in series [11] (SN304, read-out: Minimum inhibiting concentration) was 33 µM (≈ 16 µg/mL); in series [4], 17 µM.
In the case of `CO[C@H]1/C=C/O[C@@]2(C)Oc3c(C)c(O)c4c(O)c(c(/C=N/N5CCN(C)CC5)c(O)c4c3C2=O)NC(=O)/C(C)=C\C=C\[C@H](C)[C@H](O)[C@@H](C)[C@@H](O)[C@@H](C)[C@H](OC(C)=O)[C@@H]1C` [Rifampicin], the inhibition of growth at 50000 µg/mL in [12] (50 mg/ml) came out at 2%. Besides, in [12] (100 mg/ml), the inhibition of growth at 100000 µg/mL stood at 0%. In series [13], the “% Inhibition” value came out at 19%. In addition, the MIC was determined as 39 µM (≈ 32.1 µg/mL) in series [11] (setting [17]) and 5 µM in series [4] (M. avium Patient str.).
Turning to `C(=NNc1ccc2ccccc2n1)c1ccccn1` [PQ 22, pyridine-2-aldehyde-2'-quinolylhydrazone], the MIC in [1] (setting [15]) is 21 µM (≈ 5.21 µg/mL); in series [2] it was 10 µM (≈ 2.48 µg/mL); in series [11] (setting [17]), 24 µM (≈ 5.96 µg/mL); in [5] (setting [16]), 12 µM (≈ 2.98 µg/mL); in series [6] it was 28 µM (≈ 6.95 µg/mL). In addition, the IC50 was 1100 nM in series [9], 157 nM in [7], 1500 nM in [10] and 321 nM in series [8]. Also, the IC90 in series [9] was 1700 nM; in [10], 2000 nM.
Turning to `c1ccc(C(=NNc2nncc3ccccc23)c2ccccn2)cc1` [PH 22-22, 2-benzoylpyridine-1'-phthalazinylhydrazone], the MIC in series [1] (setting [15]) worked out at 12.3 µM (≈ 4 µg/mL); in [2], 2.3 µM (≈ 0.748 µg/mL); in series [4] (M. avium Patient str.) it was 86 µM; in [5] (setting [16]), 10.8 µM (≈ 3.51 µg/mL); in [6], 18.5 µM (≈ 6.02 µg/mL).
In the case of `CC(=NN(c1ccccn1)c1ccc2ccccc2n1)c1ccccn1` [PH 22-4, 2-acetylpyridine-2'-pyridyl-2'-quinolylhydrazone], the Minimum inhibiting concentration in series [1] (M. smegm. ATCC 607) is 15 μM/1; in series [2] it was 6,7 μM/1; in series [4] (M. avium Patient str.), 58 μM/1; in series [6], 4,8 μM/1. The “in vivo treatment of lymphatic leukaemia P388” value in series [3] is “ineffective”.
For the compound `Nc1ccc(S(=O)(=O)c2ccc(N)cc2)cc1` [DDS, 4,4'-diaminodiphenylsulphone], the inhibition of growth at 5000 µg/mL in [12] (5 mg/ml) worked out at 0%. The inhibition of growth at 10000 µg/mL in series [12] is 5%. For the same compound, the “% Inhibition” value in series [13] is 14%.
Regarding `CC(=O)Nc1ccc(C=NNC(N)=S)cc1` [Conteben, 4-acetylaminobenzaldehyde-thiosemicarbazone, reference compound], the MIC in [2] stood at 339 µM (≈ 80.1 µg/mL); in [4] (M. avium Patient str.) it was 35 µM; in [6], 4 µM (≈ 0.945 µg/mL). Also, the LD50 is reported as 950 mg/kg body weight in series [14] (p.o., Comptes Rendus Soc. Biol. 1310 (1950)) and 1000-2000 mg/kg body weight in series [14] (subc., J. Pharm. Pharmacol. 2, 764 (1950)).
Turning to `NC(=NNc1ccccn1)c1ccccn1` [PH 22-12, pyridine-2-carboxylic acid 2'-pyridyl-amidrazone], the IC50 in series [9] came out at 6300 nM; in series [7], 330 nM; in series [10] it was 1500 nM; in series [8], 460 nM. The values for the IC90 in series [9] and in [10] were 41000 nM and 4300 nM, respectively.
